Assay results as given in the supplement of paper PMC10307832.

The cell lines below were run with CC(C)N(CCCNC(=O)Nc1ccc(C(C)(C)C)cc1)C[C@H]1O[C@@H](n2ccc3c(N)ncnc32)[C@H](O)[C@@H]1O + C[C@]1(O)C[C@@H](c2nc(-c3ccc4ccc(-c5ccccc5)nc4c3)c3c(N)nccn32)C1 [Linsitinib] (partner 1 µM) (assay: relative viability (nuclei count vs DMSO), 5 days (fraction); higher = more cells survive). Details: first compound 0.08 µM.
How it was run: (§1)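 Lung cancer cell lines, seeded in 1536-well plates, were treated the following day by pin tool with a single drug or with five library-drug doses (not always all listed) in √10 steps on top of a fixed anchor-drug dose. Cells were fixed and nuclei stained in one step after 5 days, and nuclei were counted. Relative viability is the nuclei count for treated wells divided by that for vehicle wells, reported as medians of duplicate plates.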

| Cell Line | relative viability |
| --- | --- |
| LXF-289 | 0.994 |
| NCI-H2347 | 1 |
| NCI-H661 | 0.473 |
| CAL-12T | 0.788 |
| NCI-H1651 | 0.99 |
| EPLC-272H | 1.12 |
| NCI-H23 | 0.57 |
| NCI-H1792 | 0.534 |
| NCI-H1355 | 0.751 |
| NCI-H322M | 0.863 |
| NCI-H1437 | 0.974 |
| NCI-H1755 | 1.01 |
| NCI-H2085 | 0.912 |
| HCC-15 | 0.84 |
| NCI-H1793 | 0.818 |
| RERF-LC-KJ | 0.85 |
| EKVX | 0.941 |
| LC-2-ad | 0.886 |
| NCI-H1944 | 1.09 |
| NCI-H1975 | 0.842 |

Same assay, conditions: first compound 0.253 µM

| Cell Line | relative viability |
| --- | --- |
| HARA | 0.845 |
| NCI-H441 | 0.557 |
| NCI-H2023 | 0.734 |
| A-427 | 1.12 |
| NCI-H460 | 0.775 |
| NCI-H838 | 0.952 |
| NCI-H1734 | 0.862 |
| NCI-H596 | 0.926 |
| NCI-H1395 | 0.881 |
| 201T | 1.06 |
| NCI-H1915 | 1.15 |
| HCC-827 | 0.904 |
| LXF-289 | 1.03 |
| NCI-H2347 | 0.95 |
| NCI-H661 | 0.553 |
| CAL-12T | 0.772 |
| NCI-H1651 | 0.983 |
| EPLC-272H | 1.09 |
| NCI-H1792 | 0.503 |
| NCI-H1355 | 0.768 |
| NCI-H322M | 0.81 |
| NCI-H1437 | 1.03 |
| NCI-H1755 | 0.997 |
| NCI-H2085 | 0.949 |
| HCC-15 | 0.908 |
| RERF-LC-KJ | 0.93 |
| EKVX | 0.972 |
| LC-2-ad | 0.856 |
| NCI-H1944 | 1.15 |
| NCI-H1975 | 0.902 |

Same assay, conditions: first compound 0.8 µM

| Cell Line | relative viability |
| --- | --- |
| HARA | 0.868 |
| NCI-H441 | 0.602 |
| LCLC-97TM1 | 0.133 |
| NCI-H2023 | 0.72 |
| A-427 | 1.1 |
| NCI-H460 | 0.627 |
| NCI-H838 | 0.99 |
| NCI-H1734 | 0.88 |
| NCI-H596 | 1.02 |
| NCI-H2405 | 0.919 |
| 201T | 0.981 |
| NCI-H1915 | 1.08 |
| LXF-289 | 0.951 |
| NCI-H2347 | 0.868 |
| NCI-H661 | 0.585 |
| CAL-12T | 0.809 |

| Cell Line | relative viability |
| --- | --- |
| NCI-H1651 | 0.965 |
| EPLC-272H | 1.05 |
| NCI-H23 | 0.556 |
| NCI-H1792 | 0.393 |
| NCI-H322M | 0.877 |
| NCI-H1437 | 1.16 |
| NCI-H1755 | 0.894 |
| NCI-H2085 | 0.805 |
| HCC-15 | 0.909 |
| NCI-H1793 | 0.747 |
| RERF-LC-KJ | 0.895 |
| EKVX | 0.914 |
| LC-2-ad | 0.818 |
| NCI-H1944 | 1.17 |
| NCI-H1975 | 0.744 |

Same assay, conditions: first compound 2.53 µM

| Cell Line | relative viability |
| --- | --- |
| HARA | 0.794 |
| NCI-H441 | 0.611 |
| LCLC-97TM1 | 0.158 |
| NCI-H2023 | 0.709 |
| A-427 | 1.12 |
| NCI-H460 | 0.66 |
| NCI-H838 | 1.01 |
| NCI-H1734 | 0.901 |
| NCI-H596 | 1.08 |
| NCI-H2405 | 0.966 |
| NCI-H1395 | 1.07 |
| 201T | 1.01 |
| NCI-H1915 | 1.06 |
| HCC-827 | 0.892 |
| LXF-289 | 1.01 |
| NCI-H2347 | 1.02 |
| NCI-H661 | 0.567 |

| Cell Line | relative viability |
| --- | --- |
| CAL-12T | 0.89 |
| NCI-H1651 | 1.11 |
| EPLC-272H | 1.03 |
| NCI-H23 | 0.577 |
| NCI-H1792 | 0.52 |
| NCI-H1355 | 0.859 |
| NCI-H322M | 0.861 |
| NCI-H1437 | 1.05 |
| NCI-H1755 | 0.916 |
| NCI-H2085 | 0.958 |
| HCC-15 | 0.9 |
| NCI-H1793 | 0.86 |
| RERF-LC-KJ | 0.897 |
| EKVX | 0.943 |
| LC-2-ad | 0.79 |
| NCI-H1944 | 1.22 |
| NCI-H1975 | 0.836 |

Same assay, conditions: first compound 8 µM

| Cell Line | relative viability |
| --- | --- |
| HARA | 0.906 |
| NCI-H441 | 0.636 |
| LCLC-97TM1 | 0.191 |
| NCI-H2023 | 0.652 |
| A-427 | 1.14 |
| NCI-H460 | 0.678 |
| NCI-H838 | 0.875 |
| NCI-H1734 | 0.874 |
| NCI-H596 | 1.21 |
| NCI-H2405 | 0.945 |
| NCI-H1395 | 0.987 |
| 201T | 1.08 |
| NCI-H1915 | 1.03 |
| HCC-827 | 0.89 |
| LXF-289 | 0.928 |
| NCI-H2347 | 0.97 |
| NCI-H661 | 0.57 |

| Cell Line | relative viability |
| --- | --- |
| CAL-12T | 0.739 |
| NCI-H1651 | 0.987 |
| EPLC-272H | 1.05 |
| NCI-H23 | 0.592 |
| NCI-H1792 | 0.535 |
| NCI-H1355 | 0.843 |
| NCI-H322M | 0.894 |
| NCI-H1437 | 0.936 |
| NCI-H1755 | 0.836 |
| NCI-H2085 | 0.943 |
| HCC-15 | 0.859 |
| NCI-H1793 | 0.784 |
| RERF-LC-KJ | 0.794 |
| EKVX | 0.927 |
| LC-2-ad | 0.824 |
| NCI-H1944 | 1.16 |
| NCI-H1975 | 0.878 |

Each cell line was assayed with CC(C)N(CCCNC(=O)Nc1ccc(C(C)(C)C)cc1)C[C@H]1O[C@@H](n2ccc3c(N)ncnc32)[C@H](O)[C@@H]1O + CC(=O)Nc1cccc(-n2c(=O)n(C3CC3)c(=O)c3c(Nc4ccc(I)cc4F)n(C)c(=O)c(C)c32)c1 [Trametinib] (partner 0.02 µM) in the same assay as above. Details: first compound 0.08 µM.
How it was run: as §1

| Cell Line | relative viability |
| --- | --- |
| HARA | 0.736 |
| NCI-H441 | 0.407 |
| LCLC-97TM1 | 0.179 |
| NCI-H2023 | 0.536 |
| A-427 | 0.751 |
| NCI-H460 | 0.103 |
| NCI-H838 | 0.501 |
| NCI-H1734 | 0.587 |
